Experimental data from patent publication US20250082624A1, “METHODS OF TREATING COGNITIVE IMPAIRMENT” (NeuroTherapia, Inc., priority 2023, published 2025).
“Also recorded” adds a separate entry of the source. Read-outs that look alike come from different tables or passages of the source.

Test: Phase 1b MAD plasma pharmacokinetics, non-compartmental analysis
Type: in vivo, human
Text: Methods: All study procedures were approved by the IRB, and informed consent was obtained. Three cohorts of volunteers 45-80 years of age with well-controlled comorbidities (NOAD) and one cohort of AD patients diagnosed with cognitive impairment consistent with prodromal AD per International Working Group criteria or mild AD per National Institute on Aging—Alzheimer's Association criteria (n=6 active, 2 placebo per cohort) were enrolled. Participants were admitted to the study site for the duration of the dosing and returned 7-12 days after the last dose for a safety visit. Participants received NTRX-07 (10, 30, or 90 mg) or a placebo in a double-blinded randomization orally once daily for seven days. Subjects were assessed for changes in vital signs, including maneuvers to induce lightheadedness, electrocardiograms, 24-hour electroencephalograms (EEG), and safety laboratory studies. The second cohort returned and received a single repeat dose after a standard high-fat meal. The AD cohort also underwent cognitive testing and had blood samples for biomarkers drawn. Subjects had PK sampling done after the first and final dose of the study drug. An independent safety review committee conducted a blinded safety review of adverse events and plasma levels between each cohort.
All subjects had PK sampling done after the first and final dose of the study drug.
(§1) Raw bioanalytical data were received from Nuvisan following analysis of plasma samples from each of four cohorts. PK parameters were calculated by noncompartmental analysis using standard equations. Specifically, area under the plasma concentration versus time curve (AUC) was calculated using the trapezoid rule. Maximal plasma concentration (Cmax) and time of maximal plasma concentration (Tmax) were taken directly from the data. Clearance divided by bioavailability (Cl/F) was calculated as the dose divided by the AUC. Apparent volume of distribution over bioavailability (Vd/F) was calculated as dose divided by Cmax.
With oral administration of the dose every 24 hours for 7 days, blood samples were taken over a 24-hour interval on Days 1 and 7 and before and after dosing on Day 3.
as §1, with “on Oct. 27, 2022. […]” for “following analysis of plasma samples from each of four cohorts. PK parameters were calculated by noncompartmental analysis using standard equations.”
as §1, with “on Nov. 24, 2022. […]” for “following analysis of plasma samples from each of four cohorts. PK parameters were calculated by noncompartmental analysis using standard equations.”
as §1, with “on Dec. 19, 2022. […]” for “following analysis of plasma samples from each of four cohorts. PK parameters were calculated by noncompartmental analysis using standard equations.”
Raw bioanalytical data were received from Nuvisan on Jun. 30, 2023. […] Specifically, area under the plasma concentration versus time curve (AUC) was calculated using the trapezoid rule. Maximal plasma concentration (Cmax) and time of maximal plasma concentration (Tmax) were taken directly from the data. […]

CC1(Cc2ccccc2)COc2cc(C(=O)N3CCCCC3)ccc21 (stereo not drawn) [NTRX-07, 3-benzyl-3-methyl-2,3-dihydrobenzofuran-6-carboxylic acid-piperidine amide]
Cmax (human, plasma, po, 90 mg, Cohort D AD patients, 90 mg QD oral, Day 7, mean ± SD, read-out: Average of Cmax): 0.24 ± 0.038 µg/mL | Tmax (human, plasma, po, 90 mg, Cohort D AD patients, 90 mg QD oral, Day 7, mean ± SD, read-out: Average of Tmax): 1.1 ± 0.5 h | Vd/F (human, plasma, po, 90 mg, Cohort D AD patients, 90 mg QD oral, Day 7, mean ± SD, read-out: Average of Vd/F): 384 ± 69 L | AUC over 24 h (AUC0-24) (human, plasma, po, 90 mg, Table 14: Cohort C, 90 mg QD oral, Day 1, mean ± S.D.): 1.27 ± 0.509 µg·h/mL | Cmax (human, plasma, po, 90 mg, Table 14: Cohort C, 90 mg QD oral, Day 1, mean ± S.D., read-out: Cmax): 0.4 ± 0.202 µg/mL | Tmax (human, plasma, po, 90 mg, Table 14: Cohort C, 90 mg QD oral, Day 1, mean ± S.D., read-out: Tmax): 2.3 ± 2.2 h | Vd/F (human, plasma, po, 90 mg, Table 14: Cohort C, 90 mg QD oral, Day 1, mean ± S.D., read-out: Vd/F): 337 ± 316 L | AUC over 24 h (AUC0-24) (human, plasma, po, 90 mg, Table 15: Cohort C, 90 mg QD oral, Day 7, mean ± S.D.): 0.741 ± 0.357 µg·h/mL | Cmax (human, plasma, po, 90 mg, Table 15: Cohort C, 90 mg QD oral, Day 7, mean ± S.D., read-out: Cmax): 0.189 ± 0.095 µg/mL | Tmax (human, plasma, po, 90 mg, Table 15: Cohort C, 90 mg QD oral, Day 7, mean ± S.D., read-out: Tmax): 1.3 ± 1 h | Vd/F (human, plasma, po, 90 mg, Table 15: Cohort C, 90 mg QD oral, Day 7, mean ± S.D., read-out: Vd/F): 568 ± 231 L | AUC(0-t) (human, plasma, po, 90 mg, Table 16: Cohort D (AD), 90 mg QD oral, Day 1, mean ± S.D., read-out: AUClast): 1.56 ± 0.605 µg·h/mL | Cmax (human, plasma, po, 90 mg, Table 16: Cohort D (AD), 90 mg QD oral, Day 1, mean ± S.D., read-out: Cmax): 0.478 ± 0.154 µg/mL | Tmax (human, plasma, po, 90 mg, Table 16: Cohort D (AD), 90 mg QD oral, Day 1, mean ± S.D., read-out: Tmax): 1.1 ± 0.6 h | Vd/F (human, plasma, po, 90 mg, Table 16: Cohort D (AD), 90 mg QD oral, Day 1, mean ± S.D., read-out: Vd/F): 211 ± 90 L | AUC over 24 h (AUC0-24) (human, plasma, po, 90 mg, Table 17: Cohort D (AD), 90 mg QD oral, Day 7, individual subjects): 0.623 µg·h/mL | Cmax (human, plasma, po, 90 mg, Table 17: Cohort D (AD), 90 mg QD oral, Day 7, individual subjects, read-out: Cmax): 0.286 µg/mL | Vd/F (human, plasma, po, 90 mg, Table 17: Cohort D (AD), 90 mg QD oral, Day 7, individual subjects, read-out: Vd/F): 315 L | AUC over 24 h (AUC0-24) (human, plasma, po, 90 mg, Table 17: Cohort D (AD), 90 mg QD oral, Day 7, mean ± S.D.): 0.806 ± 0.196 µg·h/mL | Cmax (human, plasma, po, 90 mg, Table 17: Cohort D (AD), 90 mg QD oral, Day 7, mean ± S.D., read-out: Cmax): 0.24 ± 0.038 µg/mL | Tmax (human, plasma, po, 90 mg, Table 17: Cohort D (AD), 90 mg QD oral, Day 7, mean ± S.D., read-out: Tmax): 1.1 ± 0.5 h | Vd/F (human, plasma, po, 90 mg, Table 17: Cohort D (AD), 90 mg QD oral, Day 7, mean ± S.D., read-out: Vd/F): 384 ± 69 L | AUC over 24 h (AUC0-24) (human, plasma, po, 120 mg, Table 24 (interim): Cohort B, 120 mg SDD (30 mg NTRX-07) QD oral, Day 1, mean ± S.D.): 0.323 ± 0.213 µg·h/mL | Cmax (human, plasma, po, 120 mg, Table 24 (interim): Cohort B, 120 mg SDD (30 mg NTRX-07) QD oral, Day 1, mean ± S.D., read-out: Cmax): 0.109 ± 0.0578 µg/mL | Tmax (human, plasma, po, 120 mg, Table 24 (interim): Cohort B, 120 mg SDD (30 mg NTRX-07) QD oral, Day 1, mean ± S.D., read-out: Tmax): 0.9 ± 0.6 h | Vd/F (human, plasma, po, 120 mg, Table 24 (interim): Cohort B, 120 mg SDD (30 mg NTRX-07) QD oral, Day 1, mean ± S.D., read-out: Vd/F): 1340 ± 750 L | Tmax (human, plasma, po, 120 mg, Table 25 (interim): Cohort B, 120 mg SDD (30 mg NTRX-07) QD oral, Day 7, individual subjects, read-out: Tmax): 0.5 h | AUC over 24 h (AUC0-24) (human, plasma, po, 120 mg, Table 25 (interim): Cohort B, 120 mg SDD (30 mg NTRX-07) QD oral, Day 7, mean ± S.D.): 0.214 ± 0.191 µg·h/mL | Cmax (human, plasma, po, 120 mg, Table 25 (interim): Cohort B, 120 mg SDD (30 mg NTRX-07) QD oral, Day 7, mean ± S.D., read-out: Cmax): 0.12 ± 0.0792 µg/mL | Tmax (human, plasma, po, 120 mg, Table 25 (interim): Cohort B, 120 mg SDD (30 mg NTRX-07) QD oral, Day 7, mean ± S.D., read-out: Tmax): 0.5 h | Vd/F (human, plasma, po, 120 mg, Table 25 (interim): Cohort B, 120 mg SDD (30 mg NTRX-07) QD oral, Day 7, mean ± S.D., read-out: Vd/F): 1240 ± 936 L | AUC over 24 h (AUC0-24) (human, plasma, po, 360 mg SDD, Table 29 (interim): Cohort C, 360 mg SDD (90 mg NTRX-07) QD oral, Day 1, mean ± S.D.): 1.29 ± 0.541 µg·h/mL | Cmax (human, plasma, po, 360 mg SDD, Table 29 (interim): Cohort C, 360 mg SDD (90 mg NTRX-07) QD oral, Day 1, mean ± S.D., read-out: Cmax): 0.439 ± 0.236 µg/mL | Tmax (human, plasma, po, 360 mg SDD, Table 29 (interim): Cohort C, 360 mg SDD (90 mg NTRX-07) QD oral, Day 1, mean ± S.D., read-out: Tmax): 2.3 ± 2.8 h | Vd/F (human, plasma, po, 360 mg SDD, Table 29 (interim): Cohort C, 360 mg SDD (90 mg NTRX-07) QD oral, Day 1, mean ± S.D., read-out: Vd/F): 1300 ± 1290 L | AUC over 24 h (AUC0-24) (human, plasma, po, 360 mg SDD, Table 30 (interim): Cohort C, 360 mg SDD (90 mg NTRX-07) QD oral, Day 7, mean ± S.D.): 0.747 ± 0.349 µg·h/mL | Cmax (human, plasma, po, 360 mg SDD, Table 30 (interim): Cohort C, 360 mg SDD (90 mg NTRX-07) QD oral, Day 7, mean ± S.D., read-out: Cmax): 0.189 ± 0.095 µg/mL | Tmax (human, plasma, po, 360 mg SDD, Table 30 (interim): Cohort C, 360 mg SDD (90 mg NTRX-07) QD oral, Day 7, mean ± S.D., read-out: Tmax): 1.3 ± 1 h | Vd/F (human, plasma, po, 360 mg SDD, Table 30 (interim): Cohort C, 360 mg SDD (90 mg NTRX-07) QD oral, Day 7, mean ± S.D., read-out: Vd/F): 2270 ± 923 L | AUC over 24 h (AUC0-24) (human, plasma, po, 360 mg SDD, Table 34 (interim): Cohort D (AD), 360 mg SDD (90 mg NTRX-07) QD oral, Day 1, mean ± S.D.): 1.56 ± 0.329 µg·h/mL | Cmax (human, plasma, po, 360 mg SDD, Table 34 (interim): Cohort D (AD), 360 mg SDD (90 mg NTRX-07) QD oral, Day 1, mean ± S.D., read-out: Cmax): 0.478 ± 0.154 µg/mL | Tmax (human, plasma, po, 360 mg SDD, Table 34 (interim): Cohort D (AD), 360 mg SDD (90 mg NTRX-07) QD oral, Day 1, mean ± S.D., read-out: Tmax): 1.1 ± 0.6 h | Vd/F (human, plasma, po, 360 mg SDD, Table 34 (interim): Cohort D (AD), 360 mg SDD (90 mg NTRX-07) QD oral, Day 1, mean ± S.D., read-out: Vd/F): 845 ± 360 L | AUC over 24 h (AUC0-24) (human, plasma, po, 360 mg SDD, Table 35 (interim): Cohort D (AD), 360 mg SDD (90 mg NTRX-07) QD oral, Day 7, individual subjects): 1.01 µg·h/mL | Cmax (human, plasma, po, 360 mg SDD, Table 35 (interim): Cohort D (AD), 360 mg SDD (90 mg NTRX-07) QD oral, Day 7, individual subjects, read-out: Cmax): 0.286 µg/mL | Vd/F (human, plasma, po, 360 mg SDD, Table 35 (interim): Cohort D (AD), 360 mg SDD (90 mg NTRX-07) QD oral, Day 7, individual subjects, read-out: Vd/F): 1260 L | AUC over 24 h (AUC0-24) (human, plasma, po, 360 mg SDD, Table 35 (interim): Cohort D (AD), 360 mg SDD (90 mg NTRX-07) QD oral, Day 7, mean ± S.D.): 1.43 ± 0.329 µg·h/mL | Cmax (human, plasma, po, 360 mg SDD, Table 35 (interim): Cohort D (AD), 360 mg SDD (90 mg NTRX-07) QD oral, Day 7, mean ± S.D., read-out: Cmax): 0.24 ± 0.038 µg/mL | Tmax (human, plasma, po, 360 mg SDD, Table 35 (interim): Cohort D (AD), 360 mg SDD (90 mg NTRX-07) QD oral, Day 7, mean ± S.D., read-out: Tmax): 1.1 ± 0.5 h | Vd/F (human, plasma, po, 360 mg SDD, Table 35 (interim): Cohort D (AD), 360 mg SDD (90 mg NTRX-07) QD oral, Day 7, mean ± S.D., read-out: Vd/F): 1540 ± 278 L | Plasma levels / exposure Day 7 vs Day 1 (repeat QD dosing, 90 mg cohorts): A decrease of levels at Day 7 was observed; also recorded: exposure is decreasing rather than increasing over time
